How the values were obtained:
Taq DNA polymerase = molecular target: T1, Taq DNA polymerase (Thermus aquaticus, UniProt P19821); assay: Primer extension reaction with PAGE to search for a DNA polymerase able to use γF-dGTP as a substrate; format: biochemical; conditions: γF-dGTP 25 uM instead of dGTP; 5 cycles 94/46/60° C.; 20% denaturing PAGE, FIG. 3
T1 construct: purchased New England Biolabs
Experimental: (§1) In order to search DNA polymerase, primer extension reaction was performed.
(§2) More specifically, the mixed reaction solution was heated by repeating five times a cycle consisting of 20 sec at 94° C., 40 sec at 46° C., and 90 sec at 60° C.
For a control group experiment, Taq DNA polymerase reaction was performed by using dGTP in a natural state instead of γF-dGTP under the same conditions mentioned above.
(§3) After each polymerase reaction, the mixed reaction solution was developed (Vertical Gel Electrophoresis Unit, Sigma-Aldrich) by using 20% denaturing polyacrylamide gel electrophoresis (PAGE). As a result, an image of DNA fluorescence band was obtained by using scanner (Typhoon9400, GE healthcare).

Phi29 DNA polymerase = Phi29 DNA polymerase (Bacillus phage phi29, UniProt P03680); conditions: γF-dGTP 25 uM, 30° C. for 20 min, read every 20 sec; FIG. 6
Experimental: Real-time RCA (rolling circle amplification) analysis was performed by using 20 ul of mixed reaction solution comprising the primer having SEQ ID: 6 (5′-[…], 100 nM), the template chain having SEQ ID: 7 (5′-[…] […], 100 nM), dATP (25 uM, Promega), dCTP (25 uM, Promega), dTTP (25 uM, Promega), γF-dGTP (25 uM), BSA (100 μg/mL), Phi29 DNA polymerase reaction buffer (New England Biolabs), and Phi29 DNA polymerase. (6 units) The reaction was performed at 30° C. for 20 min and fluorescence intensity at every 20 sec was measured by the equipment used in <example 4>.

[1] = test system: Therminator γ DNA polymerase; assay: Quantitative real-time PCR analysis (fluorescence after each cycle, Ct standard curve); format: biochemical; conditions: for Sensitivity (Required PCR cycles for 1 copy number: Y-intercept): real-time PCR standard curve, a lower value means more sensitivity; for (Efficiency, %) [100 × (10^(−1/slope) − 1)]: real-time PCR, template 10 nM to 10 fM, 40 cycles, Max = 100%
Experimental: Total of 40 cycles of PCR was performed, wherein each cycle consists of 94° C. for 10 sec, 54° C. for 15 sec, and 72° C. for 10 sec. After each cycle was completed, fluorescence intensity was measured in real time by using StepOne real-time PCR system (ABI). […] Ct (threshold cycle) value was set up by determining the point at which the threshold encounters the polymerization curve. […] Analysis was performed under the PCR conditions, the equipment and the method identical to that of <example 4>.

[2] = test system: Therminator γ DNA polymerase; assay: Primer extension reaction with PAGE to search for a DNA polymerase able to use γF-dGTP as a substrate; format: biochemical; conditions: γF-dGTP 25 uM instead of dGTP; 5 cycles 94/46/60° C.; 20% denaturing PAGE, FIG. 3
Experimental: as §1, §2, §3

T1 sequence (P19821 whole entry): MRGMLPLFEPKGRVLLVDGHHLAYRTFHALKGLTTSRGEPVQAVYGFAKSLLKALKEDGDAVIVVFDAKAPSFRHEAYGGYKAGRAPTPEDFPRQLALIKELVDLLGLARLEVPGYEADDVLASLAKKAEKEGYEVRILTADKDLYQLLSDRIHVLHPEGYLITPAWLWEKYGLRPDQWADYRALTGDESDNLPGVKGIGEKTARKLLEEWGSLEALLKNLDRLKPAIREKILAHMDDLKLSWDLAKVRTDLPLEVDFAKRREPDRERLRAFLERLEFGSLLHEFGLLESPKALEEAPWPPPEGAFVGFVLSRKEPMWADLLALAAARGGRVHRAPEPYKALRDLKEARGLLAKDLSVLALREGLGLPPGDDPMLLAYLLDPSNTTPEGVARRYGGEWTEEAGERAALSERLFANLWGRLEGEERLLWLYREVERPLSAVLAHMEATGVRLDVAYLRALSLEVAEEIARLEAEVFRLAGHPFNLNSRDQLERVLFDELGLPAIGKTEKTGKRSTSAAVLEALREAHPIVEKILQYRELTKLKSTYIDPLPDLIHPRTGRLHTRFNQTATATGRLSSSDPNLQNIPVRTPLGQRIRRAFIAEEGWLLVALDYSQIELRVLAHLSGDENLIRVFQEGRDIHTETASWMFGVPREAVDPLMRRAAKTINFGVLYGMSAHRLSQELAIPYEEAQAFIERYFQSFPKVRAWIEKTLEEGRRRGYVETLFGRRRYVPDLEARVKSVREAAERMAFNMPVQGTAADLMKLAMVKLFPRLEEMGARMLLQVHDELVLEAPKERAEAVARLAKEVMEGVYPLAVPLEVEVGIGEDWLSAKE
Phi29 DNA polymerase, sequence (P03680 whole entry): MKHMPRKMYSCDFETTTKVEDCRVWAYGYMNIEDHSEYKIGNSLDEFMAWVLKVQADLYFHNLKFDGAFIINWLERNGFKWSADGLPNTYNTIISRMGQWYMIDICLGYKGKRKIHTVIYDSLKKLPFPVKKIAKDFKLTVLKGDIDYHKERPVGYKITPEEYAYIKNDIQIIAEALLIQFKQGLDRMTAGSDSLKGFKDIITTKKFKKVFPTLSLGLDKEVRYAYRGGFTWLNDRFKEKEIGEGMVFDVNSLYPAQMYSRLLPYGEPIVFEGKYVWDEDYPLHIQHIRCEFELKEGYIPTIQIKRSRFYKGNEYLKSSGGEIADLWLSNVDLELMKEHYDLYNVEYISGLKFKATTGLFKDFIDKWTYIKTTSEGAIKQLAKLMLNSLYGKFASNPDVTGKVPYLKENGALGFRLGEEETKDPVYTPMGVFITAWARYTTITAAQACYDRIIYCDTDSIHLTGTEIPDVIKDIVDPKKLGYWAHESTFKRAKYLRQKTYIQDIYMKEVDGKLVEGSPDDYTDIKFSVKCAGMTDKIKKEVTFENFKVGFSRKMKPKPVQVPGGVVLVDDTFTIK

Row | SMILES | Use as a substrate by the polymerase (fully extended polymerization product on PAGE) (Taq DNA polymerase) | Fluorescence intensity during real-time RCA (Phi29 DNA polymerase) | Sensitivity (Required PCR cycles for 1 copy number: Y-intercept) [1] | (Efficiency, %) [100 × (10^(−1/slope) − 1)] [1] | Use as a substrate by the polymerase (fully extended polymerization product on PAGE) [2]
1 | CC1=CC(C)=[N+]2C1=Cc1ccc(CCC(=O)NCCNP(=O)(O)OP(=O)(O)OP(=O)(O)OC[C@H]3O[C@@H](n4cnc5c(=O)[nH]c(N)nc54)C[C@@H]3O)n1[B-]2(F)F [γF-dGTP] | can use the modified nucleotide as a substrate | fluorescence intensity increases | 41.5 | 93.4% | can use the modified nucleotide as a substrate
2 | CCCN(CCCN(C)C)c1cc(/C=C2/Sc3ccccc3N2C)c2ccccc2[n+]1-c1ccccc1 [SYBR green I, reference compound] |  |  | 47.2 | 80.5% | 

Source: US20120064531A1, “MODIFIED NUCLEOTIDE AND REAL-TIME POLYMERASE REACTION USING THE SAME” (Korea Institute of Science and Technology, priority 2010, published 2012)
